This note sets out measurements from ChEMBL document CHEMBL3243990, “Hydantoins as antitumor agents” (1977).

Structures are written as SMILES. Calls of active or inactive are those of the source. The rule behind the calls is not given here.

One test has as its system L1210. In words: Antitumor activity against mouse L1210 cells allografted in mouse relative to control. Format: functional, cell-based.
For the next test, the system named is P388. The experiment in a line: Antitumor activity against mouse P388 cells allografted in mouse relative to control. It counts as functional.

`CC1(c2ccc(Cl)s2)C(=O)N(Cl)C(=O)N1Cl` (centres undefined): in the test on L1210, the outcome was inactive.

As to `CN1C(=O)NC(C)(c2cccs2)C1=O` (centres undefined), the result in the test on L1210 was inactive.

Consider `CN1C(=O)NC(c2ccc(Cl)cc2)(c2ccc(Cl)cc2)C1=O`, for which the outcome in the test with L1210 and in the test with P388 was inactive.

As to `CC(=O)N1C(=O)NC(=O)C1(C)c1ccco1` (centres undefined), the outcome with L1210 was inactive.

With `CC(=O)N1C(=O)NC(c2ccc(Cl)cc2)(c2ccc(Cl)cc2)C1=O`, the result in the test on L1210 and with P388 was inactive.

In the case of `CC(=O)N1C(=O)NC(=O)C1(c1ccc(Cl)cc1)c1ccc(Cl)cc1`, the outcome in the test on L1210 and in the test on P388 was inactive.

Consider `CC(=O)N1C(=O)NC(=O)C1(C)c1ccc(Cl)s1` (centres undefined), for which the result in the test on L1210 was inactive.

With `O=C1NC(=O)C(c2ccc(C(F)(F)F)cc2)(c2ccc(C(F)(F)F)cc2)N1`, the outcome with L1210 and with P388 was inactive.

In the case of `O=C1NC(=O)C(c2ccc(Cl)cc2)(c2ccc(Cl)cc2)N1`, in the test on L1210, the outcome was inactive.

On to `O=C1NC(c2cccs2)(c2cccs2)C(=O)N1Cl`, for which the result with L1210 was inactive.

As to `CC1(c2ccco2)NC(=O)N(Cl)C1=O` (centres undefined), the outcome in the test with L1210 was inactive.

`CC(=O)N1C(=O)N(Cl)C(=O)C1(C)c1cccs1` (centres undefined): the outcome in the test with L1210 was inactive.

For the compound `CC(=O)N1C(=O)N(Cl)C(=O)C1(c1ccc(Cl)cc1)c1ccc(Cl)cc1`, the result with L1210 and in the test on P388 was inactive.

As for `CC(=O)N1C(=O)NC(=O)C1(C)c1cccs1` (centres undefined), the outcome in the test on L1210 was inactive.

As for `CC1(c2ccco2)NC(=O)NC1=O` (centres undefined), the outcome in the test with L1210 was inactive.

Turning to `CC1(c2cccs2)NC(=O)N(C(=O)CCl)C1=O` (centres undefined), in the test on L1210, the outcome was inactive.

Turning to `CC1(c2cccs2)NC(=O)N(Cl)C1=O` (centres undefined), the result in the test with L1210 was inactive.

As to `O=C(CCl)N1C(=O)NC(c2ccc(Cl)cc2)(c2ccc(Cl)cc2)C1=O`, the result with L1210 and in the test on P388 was inactive.

As for `CC1(c2ccco2)NC(=O)N(C(=O)CCl)C1=O` (centres undefined), in the test on L1210, the outcome was inactive.

`CC1(c2cccs2)NC(=O)NC1=O` (centres undefined): in the test with L1210, the outcome was inactive.

Take `O=C1N(Cl)C(=O)C(c2ccc(C(F)(F)F)cc2)(c2ccc(C(F)(F)F)cc2)N1Cl`: the outcome in the test on L1210 and with P388 was inactive.

In the case of `CC1(c2ccc(Cl)s2)NC(=O)NC1=O` (centres undefined), the outcome in the test on L1210 was inactive.

Usually T/C stands for the ratio of treated to control. With `O=C1N(Cl)C(=O)C(c2ccc(Cl)cc2)(c2ccc(Cl)cc2)N1Cl`, the outcome in the test on L1210 was inactive. The compound also came in with a T/C in the test on P388 of 190%.

Regarding `CC1(c2cccs2)C(=O)N(Cl)C(=O)N1Cl` (centres undefined), the outcome in the test on L1210 was inactive.

For the compound `O=C1NC(=O)C(c2cccs2)(c2cccs2)N1`, the outcome with L1210 was inactive.

`O=C1NC(=O)C2(CSSC2)N1`: in the test on L1210, the result was inactive.
